Values of other authors in patent publication US20100028425A1, “PHARMACEUTICAL COMPOSITION OF ATOVAQUONE” (GLENMARK GENERICS LTD., priority 2008, published 2010).

solubility in water: practically insoluble
SMILES: O=C1C(O)=C([C@H]2CC[C@H](c3ccc(Cl)cc3)CC2)C(=O)c2ccccc21 [Atovaquone, trans 2-[4-(4-chlorophenyl)cyclohexyl]-3-hydroxy-1,4-naphthalenedione]
